Values of other authors as cited in patent US20180148781A1, “Antioxidant Compounds For Cleave Formulations That Support Long Reads In Sequencing-By-Synthesis” (QIAGEN Waltham, Inc., priority 2016, published 2018).

Details: pH 7.4

In the case of `O=C1O[C@H]([C@@H](O)CO)C(O)=C1O` [Ascorbic Acid], the “fraction present in mono-anionic form as ascorbate” value is given as 99.95%.
